# Laboratory results reported in ChEMBL document CHEMBL3352677, “Thiazolidine-2,4-diones as multi-targeted scaffold in medicinal chemistry: Potential anticancer agents” (2014).
# System: Artemia
# Assay: Cytotoxicity in brine shrimps larvae assessed as mortality after 24 hrs
# Format: functional
# Conditions: read-out: ED50 (the source's name)
row,SMILES,EC50 [µg/mL]
1,O=C1NC(=O)/C(=C/c2ccc(/C=C/C(=O)c3cccc(F)c3)cc2)S1,4
2,O=C1NC(=O)/C(=C/c2ccc(/C=C/C(=O)c3ccc(F)cc3)cc2)S1,4
3,O=C1NC(=O)/C(=C/c2ccc(/C=C/C(=O)c3cccs3)cc2)S1,4
4,COc1cc([C@@H]2c3cc4c(cc3[C@H](O)[C@H]3COC(=O)[C@H]23)OCO4)cc(OC)c1OC [PODOFILOX],3.61
